Here are results for 36 molecules from patent US20230391756A1, “NEW COMPOUND” (JANSSEN PHARMACEUTICA NV, priority 2020, published 2023).

For data set [1], the system named is NLRP3 inflammasome pathway (IL-1β). The data set can be described thus: PBMC assay: IL-1β release after LPS stimulation. It is filed as cell-based. The following applies: human PBMCs, 100 ng/ml LPS for 6 hrs, MSD. How it is done: The activity of a compound according to the present invention can be assessed by in vitro methods.
(§1) Peripheral venous blood was collected from healthy individuals and human peripheral blood mononuclear cells (PBMCs) were isolated from blood by Ficoll-Histopaque (Sigma-Aldrich, A0561) density gradient centrifugation. After isolation, PBMCs were stored in liquid nitrogen for later use. Upon thawing, PBMC cell viability was determined in growth medium (RPMI media supplemented with 10% fetal bovine serum, 1% Pen-Strep and 1% L-glutamine). […] PBMCs were added at a density of 7.5×10^4 cells per well and incubated for 30 min in a 5% CO2 incubator at 37° C. LPS stimulation was performed by addition of 100 ng/ml LPS (final concentration, Invivogen, tlrl-smlps) for 6 hrs followed by collection of cellular supernatant and the analysis of IL-1β (μM) and TNF cytokines levels (μM) via MSD technology according to manufacturers' guidelines (MSD, K151A0H).

For a further data set, the system named is TNF. In words: PBMC assay: TNF cytokine level after LPS stimulation. It is filed as cell-based. The following applies: human PBMCs, 100 ng/ml LPS for 6 hrs, MSD, read-out: TNFα EC50. How it is done: as §1

As usually defined, the IC50 is the concentration that gives 50% inhibition. As usually defined, the EC50 is the concentration that produces a half-maximal response. The term melting point denotes the temperature of the solid-liquid transition.

In turn, `CC(C)n1nc(CC(=O)Nc2nc3cc(F)ccc3n2C)c(=O)c2ccc(Br)cc21` [F-97] gave a melting point of 245.3 °C. For the same molecule, the IC50 in data set [1] was above 20 µM. Further, the EC50 with TNF is above 20 µM.

With `CC(C)n1nc(CC(=O)Nc2ccc3nncn3c2)c(=O)c2ccc(C3CCC3)cc21` [F-42], the melting point amounted to 179.8 °C. Also, in data set [1], the IC50 is 7.76 µM. Also, the EC50 in the data set on TNF is 17.8 µM.

Regarding `CCn1nc(CC(=O)Nc2ccc3ncn(C)c3n2)c(=O)c2ccc(C(F)(F)F)cc21` [F-57], the melting point came to 237.8 °C. The molecule also returned an IC50 in data set [1] of 0.514 µM. Moreover, in the data set with TNF, the EC50 was above 20 µM.

`CC(C)n1nc(CC(=O)Nc2ncc3ncn(C)c3n2)c(=O)c2ccc(C(F)(F)F)cc21` [F-50] showed a melting point of 281.4 °C. 2.95 µM corresponded to half-maximal inhibition in data set [1] (IC50). Also, the EC50 with TNF was above 20 µM.

Take `CC(C)n1nc(CC(=O)Nc2nc3ccc(Br)cc3n2C)c(=O)c2ccc(C(F)(F)F)cc21` [F-93]: the melting point amounted to 219.5 °C. Besides, the IC50 in data set [1] was above 20 µM. For the same molecule, the EC50 in the data set on TNF is above 20 µM.

`CC(C)n1nc(CC(=O)Nc2ccc3nncn3n2)c(=O)c2ccc(C(C)(C)F)cc21` [F-147]: the melting point came out at 188.2 °C. In data set [1], the IC50 turned out to be 0.051 µM. Moreover, the EC50 in the data set on TNF amounted to 2.34 µM.

On to `CCn1nc(CC(=O)Nc2ccc3nccn3n2)c(=O)c2ccc(C(F)(F)F)cc21` [F-60], for which the melting point was 193 °C. In data set [1], this molecule returned an IC50 of 0.35 µM. In addition, in the data set with TNF, the EC50 is around 12.8 µM.

With `CCC(C)n1nc(CC(=O)Nc2ccc3nncn3n2)c(=O)c2ccc(C(F)(F)F)cc21` (stereo not drawn) [F-146], the melting point came to 179.8 °C. The molecule also displayed an IC50 in data set [1] of 0.142 µM. In addition, the EC50 in the data set on TNF was 4.67 µM.

On to `CC(C)n1nc(CC(=O)Nc2ccc3nncn3n2)c(=O)c2ccc(C(C)(F)F)cc21` [F-145], for which the melting point worked out at 214.1 °C. For the same molecule, the IC50 in data set [1] stood at 0.077 µM. Moreover, the EC50 in the data set on TNF was determined as 4.32 µM.

Molecule `CC(C)n1nc(CC(=O)Nc2ccc3nncn3n2)c(=O)c2ccc(C3CCC3)cc21` [F-148] had a melting point of 168.8 °C. In data set [1], this molecule displayed an IC50 of 0.513 µM. Besides, the EC50 with TNF turned out to be 4.58 µM.

Turning to `CC(C)n1nc(CC(=O)Nc2nc3ccccc3o2)c(=O)c2ccc(Br)cc21` [F-111], the melting point is 203.3 °C. The molecule also returned an IC50 in data set [1] of 0.62 µM. The EC50 in the data set with TNF was above 20 µM.

The molecule `CC(C)n1nc(CC(=O)Nc2nc3cc(F)ccc3n2C)c(=O)c2ccc(C(F)(F)F)cc21` [F-98] showed a melting point of 222.5 °C. Also, the IC50 in data set [1] was above 20 µM. In the data set on TNF, the EC50 is above 20 µM.

In turn, `O=C(Cc1nn(C2CC2)c2cc(C(F)(F)F)ccc2c1=O)Nc1cn2cnnc2cn1` [F-107] gave a melting point of 270.9 °C. In addition, 1.14 µM corresponded to half-maximal inhibition in data set [1] (IC50). For the same molecule, the EC50 in the data set with TNF was above 20 µM.

Take `CC(C)n1nc(CC(=O)Nc2ccc3ncnn3c2)c(=O)c2ccc(C(F)(F)F)cc21` [F-24]: the melting point turned out to be 206.8 °C. For the same molecule, the IC50 in data set [1] was 0.814 µM. The EC50 in the data set on TNF was above 20 µM.

For `CCn1nc(CC(=O)N[C@H]2C[C@@](C)(O)C2)c(=O)c2ccc(Br)cc21` [F-5], the melting point came to 203.3 °C. Besides, the IC50 in data set [1] was 0.25 µM. Besides, in the data set on TNF, the EC50 is above 20 µM.

In turn, `CC(C)c1ccc2c(=O)c(CC(=O)Nc3ccc4nncn4n3)nn(C(C)C)c2c1` [F-32] showed a melting point of 121.3 °C. Further, 0.109 µM corresponded to half-maximal inhibition in data set [1] (IC50). Further, in the data set with TNF, the EC50 is 6.98 µM.

`CC(C)c1ccc2c(=O)c(CC(=O)N[C@H]3C[C@@](C)(O)C3)nn(C(C)C)c2c1` [F-26] showed a melting point of 201.5 °C. This molecule showed an IC50 in data set [1] of 1.08 µM. In addition, in the data set with TNF, the EC50 was above 20 µM.

Take `CC(C)n1nc(CC(=O)N[C@H]2C[C@@](C)(O)C2)c(=O)c2ccc(Cl)cc21` [F-28]: the melting point stood at 194.9 °C. Also, in data set [1], the half-maximal inhibitory concentration (IC50) turned out to be 0.23 µM. For the same molecule, the EC50 in the data set with TNF is above 20 µM.

`CC(C)n1nc(CC(=O)Nc2ccc3nccn3c2)c(=O)c2ccc(C(F)(F)F)cc21` [F-35]: in data set [1], the half-maximal inhibitory concentration (IC50) was determined as 0.79 µM. Besides, the concentration for a half-maximal effect (EC50) with TNF stood at 19.9 µM.

With `CC(C)n1nc(CC(=O)Nc2ccc3cnnn3c2)c(=O)c2ccc(C(F)(F)F)cc21` [F-40], the IC50 in data set [1] was determined as 2.26 µM. The 50% effective concentration (EC50) in the data set with TNF stood at 19.2 µM.

In turn, `O=C(Cc1nn(C2CC2)c2cc(C3CC3)ccc2c1=O)Nc1cn2cnnc2cn1` [F-109] displayed an IC50 in data set [1] of 0.99 µM. Besides, the EC50 in the data set on TNF was above 20 µM.

As for `CC(C)n1nc(CC(=O)Nc2cc(C(F)(F)F)ncn2)c(=O)c2ccc(C(F)(F)F)cc21` [F-16], the IC50 in data set [1] was 6.73 µM. Besides, in the data set with TNF, the EC50 was above 20 µM.

In turn, `CC(C)n1nc(CC(=O)N[C@H]2C[C@@](C)(O)C2)c(=O)c2ccc(Br)cc21` [F-3] displayed an IC50 in data set [1] of 0.123 µM. In addition, the EC50 in the data set on TNF was above 20 µM.

In turn, `CC(C)n1nc(CC(=O)Nc2cn3ccncc3n2)c(=O)c2ccc(C(F)(F)F)cc21` [F-126] returned a half-inhibitory concentration (IC50) in data set [1] of 5.62 µM. Besides, the EC50 in the data set on TNF was above 20 µM.

In data set [1], `CC(C)n1nc(CC(=O)Nc2ccc3nncn3c2)c(=O)c2ccc(C(C)(F)F)cc21` [F-149, N-([1,2,4]triazolo[4,3-a]pyridin-6-yl)-2-(7-(1,1-difluoroethyl)-1-isopropyl-4-oxo-1,4-dihydrocinnolin-3-yl)acetamide] registered a 50% inhibitory concentration (IC50) of 0.19 µM. The EC50 in the data set with TNF is above 20 µM.

On to `CC(C)n1nc(CC(=O)Nc2ccc3nccn3n2)c(=O)c2ccc(C(C)(F)F)cc21` [F-138], for which, in data set [1], the IC50 is 0.24 µM. Besides, in the data set with TNF, the EC50 amounted to 3.43 µM.

In turn, `CC(C)n1nc(NC(=O)Nc2ccc3nncn3c2)c(=O)c2ccc(C(F)(F)F)cc21` [F-150, 1-([1,2,4]triazolo[4,3-a]pyridin-6-yl)-3-(1-isopropyl-4-oxo-7-(trifluoromethyl)-1,4-dihydrocinnolin-3-yl)urea] gave an IC50 in data set [1] of 2.45 µM. Moreover, the concentration for a half-maximal effect (EC50) in the data set on TNF came to 17.1 µM.

For `CCN1CC[C@@H](C)[C@@H](NC(=O)Cc2nn(C(C)C)c3cc(C(F)(F)F)ccc3c2=O)C1` (single isomer, unassigned) [F-88], the IC50 in data set [1] was above 20 µM. In addition, the EC50 with TNF is above 20 µM.

Turning to `O=C(Cc1nn(C2CC2)c2cc(C(F)(F)F)ccc2c1=O)Nc1ccc2nncn2c1` [F-63], in data set [1], the IC50 was determined as 0.27 µM. In addition, the EC50 in the data set with TNF is above 20 µM.

`CC(C)n1nc(CC(=O)Nc2nc3cccnc3o2)c(=O)c2ccc(C(F)(F)F)cc21` [F-127] showed an IC50 in data set [1] of 4.35 µM. In the data set on TNF, the EC50 is above 20 µM.

`O=C(Cc1nn(C2CC2)c2cc(C3CC3)ccc2c1=O)Nc1ccc2nccn2n1` [F-55]: inhibition in data set [1] was half-maximal at 0.62 µM (IC50). The EC50 in the data set on TNF is above 20 µM.

`Cc1nnc2n1CC(NC(=O)Cc1nn(C(C)C)c3cc(C(F)(F)F)ccc3c1=O)CC2` (stereo not drawn) [F-11] came in with an IC50 in data set [1] of 4.02 µM. Further, in the data set with TNF, the EC50 is above 20 µM.

As to `CCn1nc(CC(=O)N[C@H]2C[C@@](C)(O)C2)c(=O)c2ccc(C3CC3)cc21` [F-83], the concentration for half-maximal inhibition (IC50) in data set [1] came out at 1.15 µM. In addition, the EC50 with TNF was above 20 µM.

Take `CCn1nc(CC(=O)Nc2ccc3nncn3n2)c(=O)c2ccc(C(F)(F)F)cc21` [F-56]: the IC50 in data set [1] was 0.53 µM. In the data set with TNF, the EC50 is 18.5 µM.

Molecule `CC(C)n1nc(CC(=O)Nc2ccc(=O)n(C)c2)c(=O)c2ccc(C(C)(F)F)cc21` [F-52] displayed an IC50 in data set [1] of 0.84 µM. The concentration giving a half-maximal response (EC50) in the data set with TNF was 16.1 µM.

`CC(C)c1ccc2c(=O)c(CC(=O)Nc3ccc4nncn4n3)nn(C3CC3)c2c1` [F-140] came in with an IC50 in data set [1] of 0.143 µM. The 50% effective concentration (EC50) in the data set with TNF is 4.88 µM.
